Holding throughout (assay type): biochemical
One assay deals with NEK6 (Homo sapiens, UniProt Q9HC98). Put plainly: kinase inhibition, NEK6.
In another assay the target is GSK3B (Homo sapiens, UniProt P49841). Put plainly: kinase inhibition, GSK3B.
The next assay has as its target T1, NEK2 (Homo sapiens, UniProt P51955).
T1 sequence (P51955 1-445): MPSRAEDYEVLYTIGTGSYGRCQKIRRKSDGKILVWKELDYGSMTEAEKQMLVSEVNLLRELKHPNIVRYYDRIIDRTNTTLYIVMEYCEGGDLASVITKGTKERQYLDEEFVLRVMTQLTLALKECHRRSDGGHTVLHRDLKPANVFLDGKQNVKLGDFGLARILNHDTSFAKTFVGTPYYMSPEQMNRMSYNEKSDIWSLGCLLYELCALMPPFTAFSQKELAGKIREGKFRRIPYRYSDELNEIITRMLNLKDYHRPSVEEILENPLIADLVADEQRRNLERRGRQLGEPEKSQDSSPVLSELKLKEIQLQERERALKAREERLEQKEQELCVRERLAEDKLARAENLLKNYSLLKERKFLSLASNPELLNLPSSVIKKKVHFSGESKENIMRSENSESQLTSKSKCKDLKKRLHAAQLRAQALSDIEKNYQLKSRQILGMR
Put plainly: kinase inhibition, NEK2.

In a further assay the target is NEK7 (Homo sapiens, UniProt Q8TDX7). Put plainly: kinase inhibition, NEK7.
A further assay addresses T2, AXL (Homo sapiens, UniProt P30530).
T2 sequence (P30530 26-894): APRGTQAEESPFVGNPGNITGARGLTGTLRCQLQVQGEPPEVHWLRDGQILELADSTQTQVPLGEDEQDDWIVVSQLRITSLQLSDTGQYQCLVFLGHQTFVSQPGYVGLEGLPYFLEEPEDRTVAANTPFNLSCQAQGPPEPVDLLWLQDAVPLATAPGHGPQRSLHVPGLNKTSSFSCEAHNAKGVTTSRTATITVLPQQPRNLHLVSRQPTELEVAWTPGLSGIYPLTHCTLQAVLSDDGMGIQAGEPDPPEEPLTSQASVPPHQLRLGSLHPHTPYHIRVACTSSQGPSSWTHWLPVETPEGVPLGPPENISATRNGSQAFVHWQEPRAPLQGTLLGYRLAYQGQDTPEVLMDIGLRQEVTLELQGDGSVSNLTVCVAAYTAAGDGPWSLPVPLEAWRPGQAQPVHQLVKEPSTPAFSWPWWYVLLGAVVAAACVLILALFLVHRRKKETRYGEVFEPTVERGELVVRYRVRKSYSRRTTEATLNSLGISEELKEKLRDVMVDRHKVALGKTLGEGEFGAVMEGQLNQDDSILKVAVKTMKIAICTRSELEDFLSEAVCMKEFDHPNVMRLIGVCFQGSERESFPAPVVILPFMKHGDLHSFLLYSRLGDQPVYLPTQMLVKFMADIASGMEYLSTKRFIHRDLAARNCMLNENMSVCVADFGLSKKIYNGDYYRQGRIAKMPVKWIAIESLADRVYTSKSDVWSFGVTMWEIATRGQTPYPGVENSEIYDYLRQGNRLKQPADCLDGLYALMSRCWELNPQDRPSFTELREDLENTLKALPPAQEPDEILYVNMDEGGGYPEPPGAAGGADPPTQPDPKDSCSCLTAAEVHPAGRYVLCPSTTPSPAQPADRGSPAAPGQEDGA
As to the kind of experiment: kinase inhibition, AXL.

The target of another assay is T3, MERTK (Homo sapiens, UniProt Q12866).
T3 sequence (Q12866 21-999): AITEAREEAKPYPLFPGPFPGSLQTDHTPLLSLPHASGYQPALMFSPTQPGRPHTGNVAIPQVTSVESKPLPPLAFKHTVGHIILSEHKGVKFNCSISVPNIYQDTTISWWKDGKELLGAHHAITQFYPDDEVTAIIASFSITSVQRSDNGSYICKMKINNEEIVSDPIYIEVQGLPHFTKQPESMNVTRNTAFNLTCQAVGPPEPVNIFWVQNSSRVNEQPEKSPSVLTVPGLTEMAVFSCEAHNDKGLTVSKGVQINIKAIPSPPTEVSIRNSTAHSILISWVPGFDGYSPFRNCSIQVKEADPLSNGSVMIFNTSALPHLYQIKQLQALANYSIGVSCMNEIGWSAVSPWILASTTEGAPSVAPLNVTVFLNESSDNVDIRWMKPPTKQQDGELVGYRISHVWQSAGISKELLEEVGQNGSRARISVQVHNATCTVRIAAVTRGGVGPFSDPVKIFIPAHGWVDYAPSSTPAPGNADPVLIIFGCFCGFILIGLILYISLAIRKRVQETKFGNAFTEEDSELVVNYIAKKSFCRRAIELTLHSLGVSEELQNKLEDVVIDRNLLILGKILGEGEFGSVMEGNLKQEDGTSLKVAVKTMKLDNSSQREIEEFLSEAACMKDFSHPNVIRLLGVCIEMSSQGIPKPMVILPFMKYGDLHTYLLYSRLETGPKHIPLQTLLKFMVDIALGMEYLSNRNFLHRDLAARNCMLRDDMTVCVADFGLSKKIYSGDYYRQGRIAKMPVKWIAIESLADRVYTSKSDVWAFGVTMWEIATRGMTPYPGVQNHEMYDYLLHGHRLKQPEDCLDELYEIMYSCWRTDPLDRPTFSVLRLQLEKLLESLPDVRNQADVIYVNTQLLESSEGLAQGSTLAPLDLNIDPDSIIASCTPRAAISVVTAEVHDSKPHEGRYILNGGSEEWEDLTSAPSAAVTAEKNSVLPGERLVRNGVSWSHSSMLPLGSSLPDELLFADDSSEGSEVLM
Put plainly: kinase inhibition, MERTK.

The target of another assay is CLK. Put plainly: kinase inhibition, CLK.
For the next assay, the target named is T4, NEK9 (Homo sapiens, UniProt Q8TD19).
T4 sequence (Q8TD19 1-979): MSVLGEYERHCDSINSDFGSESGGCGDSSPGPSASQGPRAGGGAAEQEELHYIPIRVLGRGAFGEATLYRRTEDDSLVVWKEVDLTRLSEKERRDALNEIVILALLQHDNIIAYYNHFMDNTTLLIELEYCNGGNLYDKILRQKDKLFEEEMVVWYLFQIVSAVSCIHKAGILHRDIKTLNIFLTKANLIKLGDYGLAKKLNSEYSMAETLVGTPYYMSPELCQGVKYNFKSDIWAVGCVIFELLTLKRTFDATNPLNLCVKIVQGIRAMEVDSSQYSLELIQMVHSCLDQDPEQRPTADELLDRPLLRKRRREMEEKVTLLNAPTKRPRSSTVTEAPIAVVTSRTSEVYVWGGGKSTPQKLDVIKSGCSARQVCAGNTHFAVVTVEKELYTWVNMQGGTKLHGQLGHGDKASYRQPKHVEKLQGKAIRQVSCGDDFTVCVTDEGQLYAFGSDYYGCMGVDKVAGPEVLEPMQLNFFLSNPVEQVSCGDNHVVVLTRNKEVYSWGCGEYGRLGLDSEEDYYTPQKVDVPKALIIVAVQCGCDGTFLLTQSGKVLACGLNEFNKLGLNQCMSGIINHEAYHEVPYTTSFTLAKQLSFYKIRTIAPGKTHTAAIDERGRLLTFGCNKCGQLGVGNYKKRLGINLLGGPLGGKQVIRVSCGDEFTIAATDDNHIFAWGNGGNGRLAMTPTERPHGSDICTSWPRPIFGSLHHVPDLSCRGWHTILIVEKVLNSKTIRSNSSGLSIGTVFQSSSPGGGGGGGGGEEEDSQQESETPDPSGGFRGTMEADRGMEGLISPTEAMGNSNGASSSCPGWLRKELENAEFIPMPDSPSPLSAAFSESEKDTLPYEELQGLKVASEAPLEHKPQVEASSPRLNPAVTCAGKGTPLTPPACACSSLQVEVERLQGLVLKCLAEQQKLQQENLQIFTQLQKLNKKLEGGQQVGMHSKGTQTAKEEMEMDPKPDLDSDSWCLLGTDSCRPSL
As to the kind of experiment: kinase inhibition, NEK9.

In the next assay the target is RSK1 (Homo sapiens, UniProt Q15418). As to the kind of experiment: kinase inhibition, RSK1.
The target of the next assay is SLK (Homo sapiens, UniProt Q9H2G2). Put plainly: kinase inhibition, SLK.
The next assay addresses T5, DMPK (Homo sapiens, UniProt Q09013).
T5 sequence (Q09013 1-629): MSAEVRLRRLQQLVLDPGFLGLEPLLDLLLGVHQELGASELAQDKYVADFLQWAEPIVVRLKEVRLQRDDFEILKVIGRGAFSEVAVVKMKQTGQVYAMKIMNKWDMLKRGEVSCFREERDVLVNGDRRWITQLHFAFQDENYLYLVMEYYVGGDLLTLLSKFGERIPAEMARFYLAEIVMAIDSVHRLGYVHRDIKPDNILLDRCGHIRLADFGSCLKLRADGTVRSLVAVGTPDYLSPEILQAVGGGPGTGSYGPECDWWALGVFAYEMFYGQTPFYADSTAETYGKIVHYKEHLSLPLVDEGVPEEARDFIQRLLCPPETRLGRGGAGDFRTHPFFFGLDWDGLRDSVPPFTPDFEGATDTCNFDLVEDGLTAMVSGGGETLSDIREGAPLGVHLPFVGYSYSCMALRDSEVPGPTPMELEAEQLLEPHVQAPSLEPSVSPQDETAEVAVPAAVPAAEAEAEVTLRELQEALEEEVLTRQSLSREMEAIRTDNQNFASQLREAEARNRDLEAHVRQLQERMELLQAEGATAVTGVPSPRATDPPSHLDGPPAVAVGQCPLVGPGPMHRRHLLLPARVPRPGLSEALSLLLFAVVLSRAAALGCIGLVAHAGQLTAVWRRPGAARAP
As to the kind of experiment: kinase inhibition, DMPK.

A value given as a limit tells only on which side of the number the result lay.

We go through two compounds from patent publication US11279707B2, “NEK inhibitors and methods of use” (DANA-FARBER CANCER INSTITUTE, INC., priority 2017, dated 2022).

NEK6, sequence (Q9HC98 whole entry, species assumed): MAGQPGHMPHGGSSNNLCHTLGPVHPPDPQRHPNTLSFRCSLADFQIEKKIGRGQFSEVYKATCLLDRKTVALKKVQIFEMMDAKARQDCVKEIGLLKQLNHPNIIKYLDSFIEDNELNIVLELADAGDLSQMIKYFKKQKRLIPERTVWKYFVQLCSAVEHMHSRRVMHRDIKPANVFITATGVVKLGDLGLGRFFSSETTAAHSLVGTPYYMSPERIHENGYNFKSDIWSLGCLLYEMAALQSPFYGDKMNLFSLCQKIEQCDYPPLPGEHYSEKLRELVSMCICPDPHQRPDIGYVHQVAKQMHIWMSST
NEK7, sequence (Q8TDX7 whole entry, species assumed): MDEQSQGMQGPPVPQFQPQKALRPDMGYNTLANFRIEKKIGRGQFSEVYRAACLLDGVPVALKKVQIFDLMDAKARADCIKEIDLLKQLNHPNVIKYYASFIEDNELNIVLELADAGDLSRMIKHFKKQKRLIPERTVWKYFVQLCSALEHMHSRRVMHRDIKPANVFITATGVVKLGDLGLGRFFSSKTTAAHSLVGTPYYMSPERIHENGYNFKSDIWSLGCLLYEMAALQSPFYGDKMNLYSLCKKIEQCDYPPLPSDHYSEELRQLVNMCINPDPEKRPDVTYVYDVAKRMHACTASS
RSK1, sequence (Q15418 whole entry, species assumed): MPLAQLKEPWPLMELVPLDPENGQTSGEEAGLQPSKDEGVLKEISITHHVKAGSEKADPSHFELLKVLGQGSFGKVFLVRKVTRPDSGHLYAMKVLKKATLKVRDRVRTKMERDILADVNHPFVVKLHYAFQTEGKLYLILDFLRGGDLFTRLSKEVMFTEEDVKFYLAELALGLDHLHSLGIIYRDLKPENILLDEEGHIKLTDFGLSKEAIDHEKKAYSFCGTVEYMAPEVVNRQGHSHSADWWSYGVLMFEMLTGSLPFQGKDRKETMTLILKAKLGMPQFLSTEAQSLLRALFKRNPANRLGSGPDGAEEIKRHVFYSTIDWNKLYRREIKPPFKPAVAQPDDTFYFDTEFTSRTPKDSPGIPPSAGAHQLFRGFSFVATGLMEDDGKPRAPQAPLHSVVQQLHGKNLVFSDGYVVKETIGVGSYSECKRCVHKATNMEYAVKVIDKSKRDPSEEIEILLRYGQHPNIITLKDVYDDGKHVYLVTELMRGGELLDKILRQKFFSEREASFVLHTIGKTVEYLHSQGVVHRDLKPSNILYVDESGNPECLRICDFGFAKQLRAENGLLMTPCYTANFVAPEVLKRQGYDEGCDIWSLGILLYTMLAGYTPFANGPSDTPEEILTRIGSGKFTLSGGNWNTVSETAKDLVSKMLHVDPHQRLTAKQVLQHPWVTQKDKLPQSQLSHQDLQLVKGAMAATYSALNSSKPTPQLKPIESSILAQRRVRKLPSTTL
GSK3B, sequence (P49841 whole entry, species assumed): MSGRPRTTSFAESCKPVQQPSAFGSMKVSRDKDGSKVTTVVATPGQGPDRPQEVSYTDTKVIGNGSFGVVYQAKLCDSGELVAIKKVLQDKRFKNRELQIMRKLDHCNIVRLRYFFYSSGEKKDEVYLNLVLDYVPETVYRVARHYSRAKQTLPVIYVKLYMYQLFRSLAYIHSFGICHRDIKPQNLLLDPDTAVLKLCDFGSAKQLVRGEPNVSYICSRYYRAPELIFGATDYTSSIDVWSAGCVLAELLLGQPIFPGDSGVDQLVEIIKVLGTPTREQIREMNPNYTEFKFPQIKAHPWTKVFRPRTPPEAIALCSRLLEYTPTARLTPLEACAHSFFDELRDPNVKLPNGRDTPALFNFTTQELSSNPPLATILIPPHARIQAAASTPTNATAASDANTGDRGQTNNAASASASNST
SLK, sequence (Q9H2G2 whole entry): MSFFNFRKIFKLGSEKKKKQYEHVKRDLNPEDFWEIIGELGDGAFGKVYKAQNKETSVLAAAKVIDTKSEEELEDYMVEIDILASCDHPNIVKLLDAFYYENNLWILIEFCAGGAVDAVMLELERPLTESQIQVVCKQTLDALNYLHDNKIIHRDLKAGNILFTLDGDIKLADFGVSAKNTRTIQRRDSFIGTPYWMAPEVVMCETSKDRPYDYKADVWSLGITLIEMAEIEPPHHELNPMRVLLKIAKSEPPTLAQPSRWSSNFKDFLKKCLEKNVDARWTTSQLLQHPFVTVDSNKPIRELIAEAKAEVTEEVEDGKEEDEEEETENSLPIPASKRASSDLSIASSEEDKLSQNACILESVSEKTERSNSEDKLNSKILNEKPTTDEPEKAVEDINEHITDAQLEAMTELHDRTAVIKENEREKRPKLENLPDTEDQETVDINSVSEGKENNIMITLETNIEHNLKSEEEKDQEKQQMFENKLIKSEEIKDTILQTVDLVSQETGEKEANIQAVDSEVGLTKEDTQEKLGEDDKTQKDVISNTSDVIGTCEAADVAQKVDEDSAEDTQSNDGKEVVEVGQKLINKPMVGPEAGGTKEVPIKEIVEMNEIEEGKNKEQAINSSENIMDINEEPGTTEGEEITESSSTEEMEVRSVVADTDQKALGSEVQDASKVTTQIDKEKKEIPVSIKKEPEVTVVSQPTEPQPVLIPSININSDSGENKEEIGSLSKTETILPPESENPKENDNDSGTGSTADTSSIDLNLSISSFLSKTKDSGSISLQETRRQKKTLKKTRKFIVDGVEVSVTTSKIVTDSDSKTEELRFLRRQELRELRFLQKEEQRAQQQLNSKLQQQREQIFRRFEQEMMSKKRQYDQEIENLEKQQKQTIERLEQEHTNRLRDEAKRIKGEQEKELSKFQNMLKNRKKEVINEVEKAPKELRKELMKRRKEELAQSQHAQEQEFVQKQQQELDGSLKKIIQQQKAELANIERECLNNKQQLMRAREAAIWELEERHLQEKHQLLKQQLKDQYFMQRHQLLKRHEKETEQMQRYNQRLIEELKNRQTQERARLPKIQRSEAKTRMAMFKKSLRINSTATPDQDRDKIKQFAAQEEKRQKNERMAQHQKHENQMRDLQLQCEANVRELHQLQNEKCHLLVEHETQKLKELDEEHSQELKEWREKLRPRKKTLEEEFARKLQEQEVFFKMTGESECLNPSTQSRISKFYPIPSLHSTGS

In general, IC50 refers to the concentration that inhibits the measured activity by half. Read a low IC50 as inhibition by little substance. Turning to `CN1CCN(c2ccc(Nc3ncc4c(n3)N3c5ccccc5CC3C(=O)N4C)cc2)CC1` (stereo not drawn) [Compound I-7], the IC50 was 1000 to 5000 nM on NEK6; 250 to 1000 nM on GSK3B; 50 to 250 nM on NEK2; 250 to 1000 nM against NEK7; 250 to 1000 nM on AXL; 250 to 1000 nM on MERTK. For the same compound, the 50% inhibitory concentration (IC50) was 50 to 250 nM at CLK, no more than 50 nM on NEK9 and 250 to 1000 nM against RSK1.
As to `Cn1c(=O)c2cc3ccccc3n2c2nc(Nc3ccc(N4CCC(N5CCOCC5)CC4)cc3)ncc21` [Compound I-17], the IC50 at NEK6 was 250 to 1000 nM; against NEK2 it was no more than 50 nM; at SLK, 50 to 250 nM; at CLK it was 50 to 250 nM; against NEK9, no more than 50 nM; against DMPK it was 50 to 250 nM.
